d = 2'-deoxy (DNA); r = 2'-OH (RNA)
Assays:
FOXO [1] = experiment: FOXO luciferase reporter (pFK1tk-luc) assay in Hep3B cells; format: cell-based, human
Text: The inventors analyzed the effect of miR-200 miRNAs on the downstream transducers of Akt (see FIGS. 44 to 47). Because Akt represses FOXO activity, the inventors used a luciferase reporter plasmid (pFK1tk-luc) (Biggs, W H et al., 1999, Proc Natl Acad Sci USA 96, 7421-7426) containing eight FOXO-binding sites to determine the level of FOXO activity in cultured cells. Specifically, Hep3B cells were transfected with synthesized siGFP, miR-141, miR-200a, miR-200b, miR-200c, miR-429 or siFOG2 together with pFK1tk-luc vector, and then luciferase activity was measured in the same manner as described Example 8-2. Also, Hep3B cells were transfected with luciferase, or oligonucleotides having complementary sequence to miR-141, miR-200a, miR-200b, miR-200c or miR-429 together with pFK1tk-luc vector. Then, the luciferase activity was measured in the same manner as described above. Further, Hep3B cell lines were transfected with pCK-flag (empty vector) and pCK-FOG2 produced in Example 16-1, and the luciferase activity was measured in the same manner as described above. […] Further, treating the cells with miR-200 inhibitors elevated FOXO activity (see FIG. 46).

Akt = experiment: western blotting of p-Akt in FAO cell lines; format: cell-based; conditions: compared to siGFP
FOXO [2] = experiment: FOXO activity in Huh7 cell lines transfected with miR-200 and treated with kinase inhibitors; format: cell-based, human; conditions: Huh7 cell lines transfected with miR-141/200a or miR-200b/c/429, inhibitor at 10 μM
RASSF2 3′UTR = experiment: dual-luciferase 3′UTR reporter assay, pAC-RASSF2; format: cell-based; conditions: luciferase reporter with RASSF2 3′UTR, human Hela cell lines; average of at least two independent experiments
Description: (§1) In order to determine whether the target genes identified in Example 7 are in actuality targets of miR-8 and miR-200 family miRNAs, the inventors performed cloning. In other words, […] containing the miRNA target sites. Specifically, in order to obtain cDNAs of respective target genes, from drosophila S2 cell lines or human Hela cell lines, total RNA was extracted by using RNeasy mini kit (QIAGEN, US). 1 μg of total RNA and 1 μl of Oligo-dT (Invitrogen, US) were charged with up to 50 μl of distilled water, and placed into SuperScript First-Strand Synthesis System (Invitrogen, US), followed by RT-PCR reaction. Through the reaction at 65° C. for 6 min, at 4° C. for 5 min, at 42° C. for 60 min, at 95° C. for 5 min, and at 4° C. for 5 min, cDNA was synthesized. By using the cDNA (3˜5 μg) as template, and using a primer pair on respective genes noted in Table 3 and PCR Mastermix (Promega, US), PCR was performed on 3′UTR of ush, Lap1, CG8445, dbo, Lar, Ced-12, CG12333, cbt, FOG2, SEPT7, RIN2, SHC1, HOXB5, LF11, TCF7L1, ERBB21P, ELMO2, BAP1, WDR37, KLHL20, PTPRD, RASSF2 and VAC14 from among the target genes selected in Example 7. Herein, PCRP on atro as a drosophila control gene was also performed. After the reaction was completed, the PCR product on each gene's 3′UTR region was cleaved by each of the following restriction enzymes:
(§2) Then, it was cloned into pAC5.1 luciferase vector (a kind gift of Elisa Izaurralde) cleaved by the same restriction enzymes so as to produce a reporter plasmid having a miR-8 or miR-200 family target sequence in luciferase gene's 3′UTR sequence.
(§3) Reporter plasmids and renilla luciferase expression vectors (Promega, US), as noted in Table 4, and miRNAs of miR-200 family of miR-141, miR-200a (hsa-miR-200a, SEQ ID: 87: 5′-[…]-3′), miR-200b, miR-200c (has-miR-200c, SEQ ID: 88: 5′-[…]-3′) and miR-429, and miR-8 (dme-miR-8, SEQ ID: 89: 5′-[…]-3′) were bought from Samchonri and cotransfected into drosophila S2 cell lines or human Hela cell lines. Then, the activities of luciferase were measured through dual-luciferase assay (Promega, US) by a luminometer (Biorad). Then, 7 gene pairs that respond both to miR-8 and to mir-200 family miRNAs in Drosophila and human cells, respectively were identified (see FIG. 15).

Hep3B cells = experiment: MTT cellular viability assay; format: cell-based, human; conditions: Hep3B cells transfected with 30 nM
Description: Because stimulation of PI3K and Akt is known to facilitate cell proliferation and antagonize apoptosis (Pollak, 2008), the inventors measured cellular viability with the MTT (3-(4,5-dimethylthiazol-2-yl)-2,5-diphenyltetrazolium bromide) assay in Hep3B cells. Specifically, Hep3B cells were plated in a 96-well plate, and transfected with 30 nM of synthesized siGFP, miR-141, miR-200a, miR-200b, miR-200c, miR-429 or siFOG2. Then, to the plate, 50 μl of MTT solution (2 mg/ml) (Promega, US) was added per each well, followed by culturing at 37 °C for 1 hour. Then, each well was added with 150 μl of DMSO, and measured by a microplate reader (Bio-rad, US) at a wavelength of 590 nm. Also, Hep3B cells were transfected with 200 nM of luciferase, or 200 nM of oligonucleotides having complementary sequences to miR-141, miR-200a, miR-200b, miR-200c or miR-429, and then were subjected to MTT assay in the same manner as described above.

SEPT7 3′UTR = experiment: dual-luciferase 3′UTR reporter assay, pAC-SEPT7; format: cell-based; conditions: luciferase reporter with SEPT7 3′UTR, human Hela cell lines; average of at least two independent experiments
Description: as §1, §2, §3

FOG2 3′UTR = experiment: dual-luciferase 3′UTR reporter assay, pAC-FOG2; format: cell-based; conditions: luciferase reporter with FOG2 3′UTR, human Hela cell lines; average of at least two independent experiments
Description: as §1, §2, §3

KLHL20 3′UTR = experiment: dual-luciferase 3′UTR reporter assay, pAC-KLHL20; format: cell-based; conditions: luciferase reporter with KLHL20 3′UTR, human Hela cell lines; average of at least two independent experiments
Description: as §1, §2, §3

ERBB2IP 3′UTR = experiment: dual-luciferase 3′UTR reporter assay, pAC-ERBB2IP; format: cell-based; conditions: luciferase reporter with ERBB2IP 3′UTR, human Hela cell lines; average of at least two independent experiments
Description: as §1, §2, §3

HOXB5 3′UTR = experiment: dual-luciferase 3′UTR reporter assay, pAC-HOXB5; format: cell-based; conditions: luciferase reporter with HOXB5 3′UTR, human Hela cell lines; average of at least two independent experiments
Description: as §1, §2, §3

VAC14 3′UTR = experiment: dual-luciferase 3′UTR reporter assay, pAC-VAC14; format: cell-based; conditions: luciferase reporter with VAC14 3′UTR, human Hela cell lines; average of at least two independent experiments
Description: as §1, §2, §3

KLF11 3′UTR = experiment: dual-luciferase 3′UTR reporter assay, pAC-KLF11; format: cell-based; conditions: luciferase reporter with KLF11 3′UTR, human Hela cell lines; average of at least two independent experiments
Description: as §1, §2, §3

PTPRD 3′UTR = experiment: dual-luciferase 3′UTR reporter assay, pAC-PTPRD; format: cell-based; conditions: luciferase reporter with PTPRD 3′UTR, human Hela cell lines; average of at least two independent experiments
Description: as §1, §2, §3

ELMO2 3′UTR = experiment: dual-luciferase 3′UTR reporter assay, pAC-ELMO2; format: cell-based; conditions: luciferase reporter with ELMO2 3′UTR, human Hela cell lines; average of at least two independent experiments
Description: as §1, §2, §3

SHC1 3′UTR = experiment: dual-luciferase 3′UTR reporter assay, pAC-SHC1; format: cell-based; conditions: luciferase reporter with SHC1 3′UTR, human Hela cell lines; average of at least two independent experiments
Description: as §1, §2, §3

RIN2 3′UTR = experiment: dual-luciferase 3′UTR reporter assay, pAC-RIN2; format: cell-based; conditions: luciferase reporter with RIN2 3′UTR, human Hela cell lines; average of at least two independent experiments
Description: as §1, §2, §3

BAP1 3′UTR = experiment: dual-luciferase 3′UTR reporter assay, pAC-BAP1; format: cell-based; conditions: luciferase reporter with BAP1 3′UTR, human Hela cell lines; average of at least two independent experiments
Description: as §1, §2, §3

WDR37 3′UTR = experiment: dual-luciferase 3′UTR reporter assay, pAC-WDR37; format: cell-based; conditions: luciferase reporter with WDR37 3′UTR, human Hela cell lines; average of at least two independent experiments
Description: as §1, §2, §3

TCF7L1 3′UTR = experiment: dual-luciferase 3′UTR reporter assay, pAC-TCF7L1; format: cell-based; conditions: luciferase reporter with TCF7L1 3′UTR, human Hela cell lines; average of at least two independent experiments
Description: as §1, §2, §3

PI3K = target: T1, PI3K (Homo sapiens, UniProt P27986); experiment: in vitro PI3K assay on immunoprecipitated PI3K complex; format: biochemical; conditions: recombinant protein added to the immunoprecipitated PI3K complex
T1 construct: endogenous in cells; host or cells: Hep3B cell lysate (method paragraph)

p85α = target: T2, p85α (Homo sapiens, UniProt P27986); experiment: in vitro binding assay with GST-fused recombinant p85α; conditions: purified GST-fused recombinant p85α protein
T2 construct: GST (N); made in house; host or cells: E. coli BL21
Text: In order to test whether FOG2 directly binds to p85α, the inventors cleaved PCR product on p85α gene (obtained from Example 20-1) by BamHI and EcoRI, and cloned into pGEX5X-1 vector (GE Healthcare, US) cleaved by the same restriction enzymes so as to produce GST-fused recombinant p85α expression vector. The expression vector was transfected into BL21 (Promega, US) through electroporation, and according to a known method, the […] protein was expressed and purified from bacteria (Studier, F. W. et al., 1986, J. Mol. Biol. 189, 113-130), and was used in the following in vitro binding assay, along with purified GST-fused recombinant p85α protein.

T2 sequence (P27986 whole entry, the tested form may be a part): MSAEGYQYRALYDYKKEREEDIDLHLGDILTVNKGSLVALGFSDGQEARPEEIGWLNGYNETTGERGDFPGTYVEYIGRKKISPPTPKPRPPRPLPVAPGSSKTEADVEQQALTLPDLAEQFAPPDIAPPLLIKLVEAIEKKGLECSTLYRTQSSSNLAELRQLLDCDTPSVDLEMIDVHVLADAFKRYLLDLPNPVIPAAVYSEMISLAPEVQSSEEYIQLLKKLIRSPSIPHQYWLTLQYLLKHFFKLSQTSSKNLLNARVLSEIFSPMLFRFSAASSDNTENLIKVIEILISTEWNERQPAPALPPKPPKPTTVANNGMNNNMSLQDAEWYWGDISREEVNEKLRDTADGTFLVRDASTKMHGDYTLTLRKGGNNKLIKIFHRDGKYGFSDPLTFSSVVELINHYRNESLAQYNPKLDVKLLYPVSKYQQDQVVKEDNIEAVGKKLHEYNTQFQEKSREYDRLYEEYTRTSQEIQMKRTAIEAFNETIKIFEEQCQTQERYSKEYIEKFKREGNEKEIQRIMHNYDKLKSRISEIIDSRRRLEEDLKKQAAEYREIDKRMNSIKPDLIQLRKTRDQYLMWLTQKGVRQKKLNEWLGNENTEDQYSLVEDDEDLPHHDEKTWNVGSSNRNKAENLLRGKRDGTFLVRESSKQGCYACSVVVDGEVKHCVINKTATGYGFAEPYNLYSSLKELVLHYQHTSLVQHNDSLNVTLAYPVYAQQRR
T1 sequence (P27986 whole entry): as the sequence (P27986 whole entry, the tested form may be a part) above

5′-UUAUUCAAGUCCAUCUUCCdTdT-3′ (UUAUUCAAGUCCAUCUUCCTT; siRNA; sugars from the 5' end r19 d2, backbone not given here) [siFOG2]
FOXO activity (activity of luciferase, pFK1tk-luc) (FOXO [1]): significantly repressed | p-Akt levels (Akt): increased p-Akt levels

N#CC(=C(/N)Sc1ccccc1N)/C(C#N)=C(\N)Sc1ccccc1N [U0126]
miR-200-mediated FOXO regulation (FOXO activity) (FOXO [2]): did not affect miR-200-mediated FOXO regulation

5′-UAAUACUGCCGGGUAAUGAUGGA-3′ [miR-200c]
Represion fold, RASSF2 (RASSF2 3′UTR): 0.99 fold | cell viability (MTT) (Hep3B cells): increased cell viability | Represion fold, SEPT7 (SEPT7 3′UTR): 1.29 fold | FOXO activity (activity of luciferase, pFK1tk-luc) (FOXO [1]): significantly repressed | Represion fold, FOG2 (FOG2 3′UTR): 0.32 fold | Represion fold, KLHL20 (KLHL20 3′UTR): 0.69 fold | Represion fold, ERBB2IP (ERBB2IP 3′UTR): 0.59 fold | Represion fold, HOXB5 (HOXB5 3′UTR): 0.87 fold | Represion fold, VAC14 (VAC14 3′UTR): 1.20 fold | Represion fold, KLF11 (KLF11 3′UTR): 1.07 fold | Represion fold, PTPRD (PTPRD 3′UTR): 0.97 fold | Represion fold, ELMO2 (ELMO2 3′UTR): 0.86 fold | Represion fold, SHC1 (SHC1 3′UTR): 1.85 fold | Represion fold, RIN2 (RIN2 3′UTR): 1.30 fold | Represion fold, BAP1 (BAP1 3′UTR): 0.74 fold | Represion fold, WDR37 (WDR37 3′UTR): 1.21 fold | Represion fold, TCF7L1 (TCF7L1 3′UTR): 0.80 fold

O=C1c2ccccc2-c2n[nH]c3cccc1c23 [SB600125]
miR-200-mediated FOXO regulation (FOXO activity) (FOXO [2]): did not affect miR-200-mediated FOXO regulation

B1: recombinant FOG2 protein: recombinant FOG2 protein containing the middle region of FOG2 (413-789 aa), expressed and purified from bacteria (protein, UniProt Q8WW38 413-789, looked up, fragment)
chain: DLLTRSELPQSQKAMQTKDASSDTELDKCEKKTQLFLTNQRPEIQPTTNKQSFSYTKIKSEPSSPRLASSPVQPNIGPSFPVGPFLSQFSFPQDITMVPQASEILAKMSELVHRRLRHGSSSYPPVIYSPLMPKGATCFECNITFNNLDNYLVHKKHYCSSRWQQMAKSPEFPSVSEKMPEALSPNTGQTSINLLNPAAHSADPENPLLQTSCINSSTVLDLIGPNGKGHDKDFSTQTKKLSTSSNNDDKINGKPVDVKNPSVPLVDGESDPNKTTCEACNITFSRHETYMVHKQYYCATRHDPPLKRSASNKVPAMQRTMRTRKRRKMYEMCLPEQEQRPPLVQQRFLDVANLNNPCTSTQEPTEGLGECYHPRCD
PI3K activity (PI3K): significantly inhibited the PI3K activity | binding to recombinant p85α (p85α): specifically bound to recombinant p85α

Source: patent US20130011845A1, “MICRORNA REGULATING THE INSULIN SIGNALING PATHWAY, AND METHOD FOR SCREENING MATERIAL FOR CONTROLLING THE ACTION OF A TARGET THEREOF” (SNU R & DB Foundation, priority 2009, published 2013)
